In patent EP0613481B1, “TRIAMINO PLATINUM COMPLEXES AND A METHOD FOR THE SYNTHESIS THEREOF” (priority 1991, dated 1993):

Assays:
[1] = system: L 1210/cis-DDP cell line; details: for IC50: read-out: IC50 (Concentration producing 50% of inhibition), L1210/cis-DDP, Mean ±SD
[2] = system: P388 leukemic cells; assay: In vivo compared antitumor activity assay in mice infected with P388 leukemic cells; details: single administration
[3] = system: L 1210 murine leukemia cell line; assay: 24 hours-thymidine uptake cytotoxicity, continuous exposition to the drugs; assay type: cell-based; details: for IC50: L1210, Mean ±SD, read-out: IC50 (Concentration producing 50% of inhibition)
[4] = Acute intraperitoneal toxicity and renal toxicity in mice; details: acute intraperitoneal administration, dissolved into 0.9% aqueous NaCl
[5] = system: Jurkat human cells; assay: In vitro cytotoxic activity; assay type: cell-based; details: at least comparable with cis-DDP
[6] = system: K562 human erhytroleukemic cells; assay: In vitro cytotoxic activity; assay type: cell-based; details: at least comparable with cis-DDP
[7] = mouse, in vivo, ip
[8] = system: P388 murine leukemic cells; assay: In vitro cytotoxic activity; assay type: cell-based; details: at least comparable with cis-DDP

Row | Compound | IC50 [1] [nM] | ILS (highest increase in life span) ([2]; 8 mg/kg) [%] | percent body weight variation ([2]; decrease, 8 mg/kg (maximum tolerated dose)) [%] | IC50 [3] [nM] | activity relative to cis-DDP (times greater, from IC50s) ([1]; L 1210/cis-DDP cell line) | ILS (highest increase in life span) ([2]; 21 mg/kg) [%] | percent body weight variation ([2]; increase, 21 mg/kg) [%] | LD50 [4] [mg/kg] | cytotoxic activity [5] | cytotoxic activity [6] | kidney damages (plasma BUN increase, examination of renal tubules) [7] | cytotoxic activity [8] | activity relative to cis-DDP (times more active) ([3]; parental L 1210 cell line)
1 | N.N.[Cl][Pt][Cl] [cis-DDP, cis-platinum, reference compound] | 9600 ± 2800 | 75 | 10.6 | 840 ± 90 |  |  |  |  |  |  |  |  | 
2 | cis-diamino-chloro-4-[diethylammoniumethoxycarbonylphenyl]amino-platinum (II)^+ bis-chloride monohydrate [cis-DPR] | 970 ± 170 |  |  | 510 ± 80 | about 10 times | 75 | 4.5 | 39.3 | significant cytotoxyc activity | significant cytotoxyc activity | no evaluable kidney damages | significant cytotoxyc activity | about 1.6 times
